# Species: Rattus norvegicus
# Test: Open TG-GATES - Regimen: Daily Repeat
# Assay type: toxicity, organism-based, Sprague-Dawley
# Parameters: regimen Daily Repeat, gender Male, age 6 weeks
# Conditions: in vivo, po, 10 mg/kg, […], route gavage, dose level Low; for KIDNEY_L / KIDNEY_R / KIDNEY_TOTAL: tissue Kidney; for LIVER: tissue Liver; for A/G / ALP / ALT / AST / BUN / CRE / Ca / Cl / DBIL / GLC / IP / K / LDH / Na / PL / RALB / TBIL / TC / TG / TP / gamma-GTP: tissue Plasma
structure (smiles),measurement,setting,value
CCC1(c2ccccc2)C(=O)NC(=O)NC1=O [PHENOBARBITAL],Lym,"tissue Blood, time 28 day",86.6%
same,MCH,"tissue Blood, time 28 day",20.1 pg
same,MCHC,"tissue Blood, time 28 day",34.1%
same,MCV,"tissue Blood, time 28 day",58.9 fL
same,Mono,"tissue Blood, time 28 day",3.8%
same,Neu,"tissue Blood, time 28 day",8.8%
same,PT,"tissue Blood, time 28 day",12.1 s
same,Plat,"tissue Blood, time 28 day",97.5 x10_4/uL
same,RBC,"tissue Blood, time 28 day",746 x10_4/ul
same,Ret,"tissue Blood, time 28 day",2.9%
same,WBC,"tissue Blood, time 28 day",114.8 x10_2/uL
same,KIDNEY_L,time 7 day,1.1 g
same,KIDNEY_R,time 7 day,1.1 g
same,KIDNEY_TOTAL,time 7 day,2.1 g
same,KIDNEY_L,time 14 day,1.2 g
same,KIDNEY_R,time 14 day,1.2 g
same,KIDNEY_TOTAL,time 14 day,2.3 g
same,KIDNEY_L,time 28 day,1.4 g
same,KIDNEY_R,time 28 day,1.3 g
same,KIDNEY_TOTAL,time 28 day,2.7 g
same,LIVER,time 7 day,13.7 g
same,LIVER,time 14 day,15.6 g
same,LIVER,time 28 day,16.8 g
same,A/G,time 7 day,1.5
same,ALP,time 7 day,686.4 IU/L
same,ALT,time 7 day,28 IU/L
same,AST,time 7 day,57 IU/L
same,BUN,time 7 day,18.4 mg/dL
same,CRE,time 7 day,0.6 mg/dL
same,Ca,time 7 day,10.9 mg/dL
same,Cl,time 7 day,105.2 meq/L
same,DBIL,time 7 day,0.034 mg/dL
same,GLC,time 7 day,210 mg/dL
same,IP,time 7 day,8.5 mg/dL
same,K,time 7 day,4.7 meq/L
same,LDH,time 7 day,86.8 IU/L
same,Na,time 7 day,139.6 meq/L
same,PL,time 7 day,161.2 mg/dL
same,RALB,time 7 day,3.6 g/dL
same,TBIL,time 7 day,0.4 mg/dL
same,TC,time 7 day,82.4 mg/dL
same,TG,time 7 day,129.2 mg/dL
same,TP,time 7 day,6 g/dL
same,gamma-GTP,time 7 day,1.2 IU/L
same,A/G,time 14 day,1.6
same,ALP,time 14 day,858.8 IU/L
same,ALT,time 14 day,33.8 IU/L
same,AST,time 14 day,63.2 IU/L
same,BUN,time 14 day,17.8 mg/dL
same,CRE,time 14 day,0.6 mg/dL
same,Ca,time 14 day,11.3 mg/dL
same,Cl,time 14 day,106 meq/L
same,DBIL,time 14 day,0.004 mg/dL
same,GLC,time 14 day,193.8 mg/dL
same,IP,time 14 day,9.1 mg/dL
same,K,time 14 day,4.7 meq/L
same,LDH,time 14 day,100 IU/L
same,Na,time 14 day,141.6 meq/L
same,PL,time 14 day,162.8 mg/dL
same,RALB,time 14 day,4 g/dL
same,TBIL,time 14 day,0.2 mg/dL
same,TC,time 14 day,83.8 mg/dL
same,TG,time 14 day,127.6 mg/dL
same,TP,time 14 day,6.6 g/dL
same,gamma-GTP,time 14 day,1 IU/L
same,A/G,time 28 day,1.6
same,ALP,time 28 day,707.4 IU/L
same,ALT,time 28 day,29.6 IU/L
same,AST,time 28 day,56.2 IU/L
same,BUN,time 28 day,21.6 mg/dL
same,CRE,time 28 day,0.3 mg/dL
same,Ca,time 28 day,10.3 mg/dL
same,Cl,time 28 day,108.4 meq/L
same,DBIL,time 28 day,0.026 mg/dL
same,GLC,time 28 day,195.8 mg/dL
same,IP,time 28 day,7.4 mg/dL
same,K,time 28 day,5 meq/L
same,LDH,time 28 day,84.2 IU/L
same,Na,time 28 day,139.8 meq/L
same,PL,time 28 day,148 mg/dL
same,RALB,time 28 day,3.9 g/dL
same,TBIL,time 28 day,0.4 mg/dL
same,TC,time 28 day,69.6 mg/dL
same,TG,time 28 day,164.4 mg/dL
same,TP,time 28 day,6.3 g/dL
same,gamma-GTP,time 28 day,1.4 IU/L
